Here are results for three compounds from US10213449B2, “Compositions and methods for treating medulloblastoma” (The Board of Trustees of the Leland Stanford Junior …, priority 2016, dated 2019).

Experiment [1] concerns Hh signaling in NIH 3T3 cells exposed to Shh. As to the kind of experiment: RT-qPCR of Hh target transcripts in Shh-stimulated NIH 3T3 cells. Type of experiment: cell-based, mouse. Particulars: SHH ligand-induced NIH 3T3 cells; as early as 4 h post exposure. On the procedure:
(§1) NIH3T3s or SUFU−/− MEFs were plated in 6 well plates at 400,000 cells/well in 10% FBS media constituted of DMEM (Invitrogen11960-069) supplemented with 10% FBS (Hyclone Labs SH30070.02), pen/strep (Life Technologies 15140-122), sodium pyruvate (Invitrogen 11360-070) and glutamax (Invitrogen 35050-061). Cells were then starved in 0.5% FBS for 24 h prior to treatment with 25% ShhN conditioned media in 0.5% FBS+/− drug treatment. GliΔN were treated 48 h post transfection. Unless otherwise stated, all treatments were performed for 6 h. Cell lysis and RNA extraction was performed using Qiashredder homogenizers (Qiagen 79654) and RNEasy mini kits (qiagen 74104) as per manufacturer's instructions. RNA was quantified on a nanodrop spectrophotometer (nanoddrop technologies ND-2000C). Transcript quantification was performed using a TaqMan RNA-to-Ct 1-Step Kit (Life technologies, 4392656) and the Applied Biosystems 7500 RT-PCR system as per the manufacturer's instructions. All primers were commercially available TaqMan® Gene Expression Assay probes purchased from Life Technologies (csnk2a1: Mm00786779_s1, csnk2a2: Mm01243455_m1, csnk2b: Mm00487216_m1, Gli1: Mm00494654_m1, Gli2: Mm.273292, Ccnd1: Mm.273049, Ptch: Mm00436047_m1).

Experiment [2] has as its system MB cell lines (MB55, MB21, MB53). As to the kind of experiment: Cell viability of MB cell lines (CellTiter-Glo). It counts as cell-based, mouse. The note with it: multiple MB cell lines derived from Ptch1+/− and Ptch1+/−; Trp53−/− mice. On the procedure: Ptch+/−MB cell lines MB55 and MB21 were kindly gifted from Dr. Rosalind Segal (Dana Farber Cancer Institute, Harvard Medical School) and Ptch^+/−; p53^−/− MB53 cells were kindly gifted from Charles Rudin (Memorial Sloan-Kettering Cancer Center). All cell lines were validated for high Gli activity. Cell viability was assessed using CellTiter-Glo (G7573, Promega, WI, USA) according to the manufacturers instructions. Cells were plated at 10000 cells/well in 96-well plates, treated with drugs as indicated and data was collected on a TECAN Infinite 200 plate reader.
(In general: In ATP-based viability assays light output follows the ATP content of the culture.)

The test system of experiment [3] is Medulloblastoma cell lines (MB53, MB55 and MB21 cells). As to the kind of experiment: Acquired resistance in medulloblastoma cell lines. It counts as cell-based, mouse. The note with it: CX-4945 10 uM. On the procedure: Medulloblastoma cell lines (MB53, MB55 and MB21 cells) were cultured in Neurobasal (Life Technologies 10888-022)+B27 supplement (Invitrogen 17504044)+DMSO (0.1%), CX-4945 (10 uM) or TBB (50 uM). […] Primer sequences are provided in supplemental table 5.

Experiment [4] relates to Ptch+/−; Trp53−/−; SmoD477G MB intracranial allografts. Nature of the experiment: Intracranial allograft survival study. It counts as in vivo, mouse. Particulars: CX-4945 75 mg/kg PO BID vs vehicle control. On the procedure: Ptch+/−; Tpr53−/−; SmoD477G were suspended in sterile PBS to an adjusted final volume of at 80,000 cells/2 uL injection. Mice were anesthetized and fixed to a stereotactic frame and the head was sterilized. A small sagittal incision was made in the mouse's scalp to expose the area surrounding lambda. The skull was sterilized a 0.7 mm drill bit was used to create a midline hole located 2 mm down from lambda. A Hamilton syringe with affixed 26 g needle was lowered to a depth of ˜3 mm then withdraw to 2.75 mm before injecting 2 uL (80,000) cells at 0.5 ul/min. The drill hole was closed with a thin slip of bone wax and the wound was closed. […] Corn oil was used as vehicle for both CX-4945 and DMSO. Weight, morbidity and survival were measured by a blinded collaborator. Kaplan-meyer survival curves were generated using GraphPad Prism and significance was measured by Logrank Mantel-Cox test.

The subject of experiment [5] is Hh signaling in Sufu−/− mouse embryonic fibroblasts. Nature of the experiment: RT-qPCR of Gli1 in Sufu−/− MEFs (epistasis study). Type of experiment: cell-based. An excerpt: (§2) Epistasis studies were next performed to determine where in the hedgehog pathway CK2 acts. The effect of TBB was examined: (i) in NIH 3T3s stimulated with SAG, a SMO agonist, (ii) in Sufu−/− mouse embryonic fibroblasts (MEF), and (iii) in NIH 3T3 cells overexpressing GLI2 (FIG. 3d-3f).
Sufu^−/− MEFs (conditional deletion of exons 4-8) were kindly provided by Pao-Tien Chang (UCSF). SAG (S7779), GDC-0449 (Vismodegib, S1082) and CX-4945 (Silmitasertib, S2248) was purchased from SelleckChem.com. TBB was purchased from EMD (218697). Shh-N conditional medium was made using a HEK 293 cell line that stably secretes ShhN as previously described. Myc-GL12-DN (17649, pCS2-MT-GLI2-deltaN) plasmid was purchased from Addgene (Cambridge, Mass., USA). […]
NIH3T3s or SUFU−/− MEFs were plated in 6 well plates at 400,000 cells/well in 10% FBS media constituted of DMEM (Invitrogen11960-069) supplemented with 10% FBS (Hyclone Labs SH30070.02), pen/strep (Life Technologies 15140-122), sodium pyruvate (Invitrogen 11360-070) and glutamax (Invitrogen 35050-061). […] RNA was quantified on a nanodrop spectrophotometer (nanoddrop technologies ND-2000C). Transcript quantification was performed using a TaqMan RNA-to-Ct 1-Step Kit (Life technologies, 4392656) and the Applied Biosystems 7500 RT-PCR system as per the manufacturer's instructions. […]
Background: Quantitative PCR measures a nucleic acid by following its amplification.

The subject of experiment [6] is Ptch+/−; Tpr53−/−; SmoD477G MB flank allografts. Nature of the experiment: Flank allograft study, SMO inhibitor-resistant MB. It counts as in vivo, mouse. The note with it: TBB 30 mg/kg IP BID or GDC-0449 37.5 mg/kg IP BID vs vehicle control. As for the experimental part:
In vivo efficacy studies were performed in accordance with protocols approved by the Institutional Animal Care and Use Committee at Stanford University. SmoWT-MB and Smo[…]-MB cells isolated from either parental SmoWT or Smo[…] mouse Ptch^+/-; p53^-/- MB hind-flank allografts were kindly provided by Charles Rudin (Memorial Sloan-Kettering Cancer Center). Ptch+/-; Tpr53-/-, or, Ptch+/-; Tpr53-/-; Smo[…] MB cells were mixed 1:1 with matrigel and 10^7 cells were injected into both flanks of a Nu/Nu mouse. Once tumors reached 225-275 mm^3, mice were randomized to treatment vs. control groups. Treatment groups received 30 mg/kg IP BID of TBB (reconstituted in DMSO at 50 ug/uL), or 37.5 mg/kg IP BID of GDC-0449 (reconstituted in DMSO at 62.5 ug/uL). Control mice were treated with an equivalent volume of DMSO. Corn oil was used in all groups to a total volume of 180 uL/injection and all doses were given with a 28 g insulin syringe. Tumors were measured and mice were weighed daily. Once tumors reached 1.5 cm^2 or met institutional euthanasia criteria, mice were sacrificed and tumors were harvested. Growth curves were generated using GraphPad Prism and significance was measured by two-way ANOVA.

Experiment [7] concerns Hh signaling in NIH 3T3s stimulated with SAG. As to the kind of experiment: RT-qPCR of Gli1 in NIH 3T3s stimulated with SAG (epistasis study). It counts as cell-based, mouse. Particulars: NIH 3T3s, SAG treated groups. As for the experimental part: as §2
as §1, with “All primers were commercially available TaqMan® Gene Expression Assay probes purchased from Life Technologies (csnk2a1: Mm00786779_s1, csnk2a2: Mm01243455_m1, csnk2b: Mm00487216_m1, Gli1: Mm00494654_m1, Gli2: Mm.273292, Ccnd1: Mm.273049, Ptch: Mm00436047_m1).” left out

Structures are written as SMILES. “Also recorded” adds a separate entry of the source.

Take `O=C(O)c1ccc2c(c1)nc(Nc1cccc(Cl)c1)c1ccncc12` [CX-4945, 5-(3-Chloroanilino)benzo[c][2,6]naphthyridine-8-carboxylic acid]: in experiment [1], the “Gli1 mRNA levels” value is “inhibited; also recorded: loss of Gli1 induction”. For the same compound, the cell viability entry in experiment [2] is listed as “decreased; also recorded: dose dependent tumoricidal effects”. For the same compound, the “surviving cells after 2 weeks of culture with drug” value in experiment [3] is “only control treated (DMSO) and MB55 TBB treated (50 uM) cells remained”. The “survival (Kaplan-Meier) of mice harboring intracranial allografts” value in experiment [4] is recorded as “significant increase in survival”.
On to `CS(=O)(=O)c1ccc(C(=O)Nc2ccc(Cl)c(-c3ccccn3)c2)c(Cl)c1` [GDC-0449, 2-chloro-N-(4-chloro-3-pyridin-2-ylphenyl)-4-methylsulfonylbenzamide], for which the “Gli1 mRNA levels” value in experiment [1] was “loss of Gli1 induction”. For the same compound, the “Gli1 mRNA / Gli transcript levels” value in experiment [5] is “no significant change”. Further, in experiment [6], the “tumor growth of SmoD477G MB flank allografts” value was “resistant”.
Turning to `CNC1CCC(N(Cc2cccc(-c3ccncc3)c2)C(=O)c2sc3ccccc3c2Cl)CC1` (centres unmarked) [SAG], the “Gli1 mRNA levels (effect of SMO agonist)” value in experiment [7] is on record as “Increased”.
